Measured values from patent US4510082A, “Pharmacologically active peptides” (Eli Lilly and Company, priority 1983, dated 1985).
Counter-ions that a name gives are not always drawn.

Columns and labels:
mice = settings: cited from earlier work
Cox Standard albino mice = test: mouse writhing test (acetic acid induced); assay type: in vivo; settings: 0.6% acetic acid i.p., dose reducing writhing frequency by 50%
Experimental: In the mouse writhing test, a writhing response is defined as a contraction of the abdominal musculature followed by extension of the hind limbs. Acetic acid administered intraperitoneally (10 ml./kg.) at a concentration of 0.6% was used to induce a writhing response. Five Cox Standard albino mice weighing 20-22 g. after being fasted overnight were observed simultaneously for the writhing response. Each mouse was used only once. The observation period was then […] and started five minutes following administration of the acetic acid. Inhibition of mouse writhing was calculated from the total number of writhes in the control and test compound-treated groups according to the following formula: [formula]
The dose required to reduce the frequency of writhing by 50% is defined as the ED50 and is calculated by "The use of Regression Line in Reverse", [Brownlee, K.A., Statistical Theory and Methodology in Science and Engineering, 2nd Ed., New York, John Wiley and Sons (1965)].

mouse (Harlan ND4) = test: mouse hot plate test (mouse jump); assay type: in vivo; settings: subcutaneous injection, tested 15 minutes after administration, hot plate 55° C.
Experimental: In the mouse hot plate test, an upright acrylic cylinder comprising, as its base, a hot plate surface which is maintained at 55° C. is used. A mouse (Harlan ND4) is given, by subcutaneous injection, a predetermined amount of test compound dissolved or suspended in a suitable carrier, and, 15 minutes after administration of the test compound, the mouse is placed on the hot plate surface. The latency in seconds until the mouse jumps from the hot plate surface is measured. […] This must occur in a dose range which produces no motor incoordination or incapacitation. The following Table records ED50 results obtained from this test. By the term "ED50 " is meant that dose which produces analgesia in 50% of the mice tested. Analgesia is defined as a response latency in the presence of test compound that is equal to or greater than the control response latency plus two standard deviations. The percent analgesia data are converted to probits, and the ED50 is calculated by regression analysis of the dose-response data. Each dose response curve must have at least four points, and each point is determined using data from a minimum of ten treated mice and ten control mice.

Row | Compound | analgesic activity upon intracerebroventricular administration (mice) | Mouse Writhing, ED50, Oral (Cox Standard albino mice) | Mouse Writhing, ED50, Subcutaneous (Cox Standard albino mice) [mg/kg] | Mouse Jump ED50 (mouse (Harlan ND4)) [mg/kg]
1 | H-Tyr-Gly-Gly-Phe-Leu-OH [leucine enkephalin] | exhibit analgesic activity |  |  | 
2 | CCN(C(=O)CNC(=O)[C@@H](C)NC(=O)[C@H](Cc1ccc(O)cc1)NC)[C@@H](Cc1ccc(F)cc1)CN(C)C [Ala Et p-F, L-(N-Methyl)tyrosyl-D-alanylglycine[N-ethyl-N-[1-(4'-fluorobenzyl)-2-dimethylamino]ethyl]amide, Diacetate Salt] |  | 88.2 mg/kg | 2.1 | 0.04
3 | CCN(C(=O)CNC(=O)[C@@H](COC)NC(=O)[C@H](Cc1ccc(O)cc1)NC)[C@@H](Cc1ccccc1)CN(C)C [Ser(Me) Et H, L-(N-Methyl)tyrosyl-D-(O-methyl)serylglycine, [N-ethyl-N-(1-benzyl-2-dimethylamino)ethyl]amide, Diacetate Salt] |  | 53.5 mg/kg | 3.6 | 0.09
4 | H-Tyr-Gly-Gly-Phe-Met-OH [methionine enkephalin] | exhibit analgesic activity |  |  | 
5 | CCN(C(=O)CNC(=O)[C@@H](C)NC(=O)[C@H](Cc1ccc(O)cc1)NC)[C@@H](Cc1ccccc1)CN(C)C [Ala Et H, L-(N-Methyl)tyrosyl-D-alanylglycine, [N-ethyl-N-(1-benzyl-2-dimethylamino)ethyl]amide, Diacetate Salt] |  | 50.4 mg/kg | 1.14 | 0.04
6 | CN[C@@H](Cc1ccc(O)cc1)C(=O)N[C@H](C)C(=O)NCC(=O)N(C)[C@@H](Cc1ccccc1)CN(C)C [Ala Me H, L-(N-Methyl)tyrosyl-D-alanylglycine, [N-methyl-N-(1-benzyl-2-dimethylamino)ethyl]amide, Diacetate Salt] |  | ~ 160 mg./kg. | 1.81 | 0.05
